The record followed here is patent publication US20040086999A1, “Mutated-pf-4, its fragments and mutated fusion peptides, their analogues, corresponding dna, cdna and mrna sequences and their use for inhibiting angiognesis” (priority 2000, published 2004).

Test [1] relates to FGF-2 high-affinity receptors. The test can be described thus: Inhibition of binding of 125I-FGF-2 to high-affinity receptors on endothelial cells. The following applies: 125I-FGF-2 10 ng/ml, 2 h at 4° C., read-out: I50, inhibition of the binding of FGF-2 to the high-affinity receptors. As to the method: The inhibition of the binding of FGF-2 to high-affinity receptors (Table 1) is measured in the following manner. FGF-2 is radiolabeled with ^125I-Na, and 10 ng/ml are incubated with endothelial cells for 2 h at 4° C. The radioactivity bound to high-affinity receptors is then determined. The specific binding is estimated by subtracting the nonspecific binding from the total binding (in the presence of a 100-fold excess of cold ligand relative to the hot ligand). The I50 is the concentration which inhibits specific binding by 50%.
(§1) A more detailed description of these measurements of I50 may be found in Jouan et al. and in Perollet et al. cited above.

Another test has as its system VEGF receptors. The test can be described thus: Inhibition of binding of 125I-VEGF to surface receptors on endothelial cells. The following applies: 125I-VEGF 10 ng/ml, 2 h at 4° C., read-out: I50, inhibition of the binding of VEGF to the high-affinity receptors. The procedure: The inhibition of the binding of VEGF to the surface receptors (Table 1) is measured in the following manner. VEGF is radiolabeled with ^125I-Na, and 10 ng/ml are incubated with endothelial cells for 2 h at 4° C. The radioactivity bound to the receptors is then determined. The specific binding is estimated by subtracting the nonspecific binding from the total binding (in the presence of a 100-fold excess of cold ligand relative to the hot ligand). The I50 is the concentration which inhibits specific binding by 50%.
as §1

The next test deals with proteoglycans. The test can be described thus: Inhibition of binding of 125I-FGF-2 to proteoglycans on endothelial cells. The following applies: 125I-FGF-2 10 ng/ml, 2 h at 4° C., read-out: I50, inhibition of the binding of FGF-2 to proteoglycans. The procedure:
The inhibition of the binding of FGF-2 to the proteoglycans (Table 2) is measured in the following manner. FGF-2 is radiolabeled with ^125I-Na, and 10 ng/ml are incubated with endothelial cells for 2 h at 4° C. The radioactivity bound to the proteoglycans is then determined. The specific binding is estimated by subtracting the nonspecific binding from the total binding (in the presence of a 100-fold excess of cold […] relative to the hot ligand). The I50 is the concentration which inhibits specific binding by 50%.
as §1

Test [2] has as its system proliferation induced by FGF-2. The test can be described thus: Inhibition of the biological activity of FGF-2 (FGF-2-induced cell proliferation, cell count). The following applies: 20 000 cells, 10 ng/ml FGF-2, DMEM 1% FCS, counted on day 6; read-out: I50, inhibition of cell proliferation. It is filed as cell-based. As to the method: The inhibition of the biological activity of FGF-2 (Table 3) is measured in the following manner: 20 000 cells are incubated with 10 ng/ml of FGF-2 in DMEM medium containing 1% fetal calf serum (FCS) in dishes 3.5 cm in diameter in the presence or in the absence of peptide. The cells are counted on the 6 day using a Coulter counter. The experiments are carried out in duplicate. The I50 is the concentration which inhibits the proliferation induced by FGF-2 by 50%.
as §1

The next test deals with angiogenesis. The test can be described thus: Inhibitory activity tests of the fusion peptide (method not described). Conditions: test not specified.

Consider “Peptide 47-70 DLQ: nonmutated PF-4 fragment 47-70, control peptide used as comparative example (NGRKICLDLQAPLYKKIIKKLLES; Platelet factor 4; UniProt P02776 78-101, looked up, fragment) [reference compound]”, for which the IC50 in test [1] came out at 1500 nM; with VEGF receptors it was 1500 nM; with proteoglycans, 3500 nM; in test [2], 2800 nM.
As to “fusion peptide 17-34/47-70: fusion peptide 17-34/47-70 derived from PF-4; the mutated form is SEQ. ID. No:4 (SQVRPRHITSLEVIKAGPNGRKICLDLRAPLYKKIIKKLLES; SEQ ID NO. 4 is the 17-34/47-70 fragment of mutated PF-4 SEQ. ID NO. 2.) [fusion peptide 17-34/47-70 derived from PF-4; ID; No:4]”, the “Inhibitory activity compared with native PF-4 or fragment 47-70” value with angiogenesis is given as “inhibitory activity greater than that of native PF-4 or of fragment 47-70”.
For the substance “Peptide 47-70 DLR: PF-4 fragment 47-70 with glutamine in position 56 replaced by arginine (SEQ. ID. No:3) (NGRKICLDLRAPLYKKIIKKLLES; SEQ ID NO. 3 is the 47-70 fragment of mutated PF-4 SEQ ID. NO. 2)”, the IC50 in test [1] stood at 300 nM; in the test with VEGF receptors, 300 nM; with proteoglycans, 600 nM; in test [2], 400 nM.
